Results as given in patent publication US8932597B2 (priority 2008, dated 2015).

Key:
[1] = test system: anti-M2 human monoclonal antibody Z3G1; assay type: binding
HuM2e antibody 23K12 = assay type: binding, human

Row | Substance | Signal (peptides that bind to 23K21 and 8I10) (HuM2e antibody 23K12) | other results
1 | 606 (SLLTEVETQIRNEWGCRCNDSSD; epitope peptide) [compound 606] | 819 | Signal (peptides that show specific binding to Z3G1) [1]: 2189
2 | 304 (MSLCTEVGMSLLCEV; epitope peptide) [compound 304] | 1935 | Signal (peptides that bind to Z3G1) [1]: 2616
3 | 315 (MCLCTCVGCSLLTEC; epitope peptide) [compound 315] | 1823 | –
4 | 567 (SLLTECGCSCLCEV; epitope peptide) [compound 567] | 879 | –
5 | 362 (CSLLTECGMCLLTEV; epitope peptide) [compound 362] | 1517 | –
6 | 149 (CTEVETPIRNEWGSRSCLTEVETPIRNEWGSRC; epitope peptide) [compound 149] | 1348 | –
7 | 319 (SLLTECGSLLTCV; epitope peptide) [compound 319] | 1800 | –
8 | 498 (SLLTEMETPIRNEWGCRCNDSSD; epitope peptide) [compound 498] | 1076 | –
9 | 514 (SLLTEGETPIRNEWGCRCNDSSD; epitope peptide) [compound 514] | 1029 | –
10 | 369 (SLLTEAETPIRNEWGCRCNDSSD; epitope peptide) [compound 369] | 1481 | –
11 | 462 (SLLTECGCLLTEV; epitope peptide) [compound 462] | 1259 | –
12 | 494 (SLLTEQETPIRNEWGCRCNDSSD; epitope peptide) [compound 494] | 1102 | –
13 | 540 (SLLTEHETPIRNEWGCRCNDSSD; epitope peptide) [compound 540] | 942 | –
14 | 485 (CSLLTECGMCLCTCV; epitope peptide) [compound 485] | 1168 | –
15 | 550 (SLLTENETPIRNEWGCRCNDSSD; epitope peptide) [compound 550] | 914 | –
16 | 515 (SLLTEWETPIRNEWGCRCNDSSD; epitope peptide) [compound 515] | 1025 | –
17 | 307 (SLCTEVGCLCTCV; epitope peptide) [compound 307] | 1907 | –
18 | 323 (SLCTEVGSLLTCV; epitope peptide) [compound 323] | 1781 | –
19 | 455 (CLCTCVGSLLTEC; epitope peptide) [compound 455] | 1303 | –
20 | 523 (SLLTEFETPIRNEWGCRCNDSSD; epitope peptide) [compound 523] | 1009 | –
21 | 310 (MSCLCECGMSLLTEC; epitope peptide) [compound 310] | 1887 | –
22 | 298 (SLCTEVGSCLCEC; epitope peptide) [compound 298] | 1967 | –
23 | 348 (SLLTECGCSLLTEV; epitope peptide) [compound 348] | 1597 | –
24 | 367 (SLCTEVGSLLTEC; epitope peptide) [compound 367] | 1495 | –
25 | 507 (SLCTEVETPIRNEWGCRCNDSSD; epitope peptide) [compound 507] | 1050 | –
26 | 601 (SLLTECGSCLTEV; epitope peptide) [compound 601] | 830 | –
27 | 391 (SNLTEVETPIRNEWGCRCNDSSD; epitope peptide) [compound 391] | 1345 | –

Row | Substance | Signal (peptides that bind to 23K21 and 8I10) (HuM2e antibody 23K12) | other results
28 | 574 (CLLTEVGSLLTEC; epitope peptide) [compound 574] | 866 | –
29 | 480 (SLLTECGCLCTCV; epitope peptide) [compound 480] | 1193 | –
30 | 490 (SVLTEVETPIRNEWGCRCNDSSD; epitope peptide) [compound 490] | 1109 | –
31 | 497 (SLLTECGSCLCEC; epitope peptide) [compound 497] | 1077 | –
32 | 558 (CSLLTECGMSCLCEC; epitope peptide) [compound 558] | 897 | –
33 | 378 (SLLTECGSLLTEC; epitope peptide) [compound 378] | 1426 | –
34 | 487 (SLLTNVETPIRNEWGCRCNDSSD; epitope peptide) [compound 487] | 1142 | –
35 | 481 (CSLLTECGMSLCTEV; epitope peptide) [compound 481] | 1187 | –
36 | 340 (MSCLCECGCSLLTEC; epitope peptide) [compound 340] | 1652 | –
37 | 521 (SLLTAVETPIRNEWGCRCNDSSD; epitope peptide) [compound 521] | 1012 | –
38 | 589 (CSLLTECGMSCLTEV; epitope peptide) [compound 589] | 846 | –
39 | 518 (SYLTEVETPIRNEWGCRCNDSSD; epitope peptide) [compound 518] | 1019 | –
40 | 472 (SLLTECGSLCTEV; epitope peptide) [compound 472] | 1218 | –
41 | 471 (SLLTEEETPIRNEWGCRCNDSSD; epitope peptide) [compound 471] | 1220 | –
42 | 376 (CSLLTECGMSLLTEC; epitope peptide) [compound 376] | 1445 | –
43 | 335 (CSCLCEVGCSLLTEC; epitope peptide) [compound 335] | 1677 | –
44 | 468 (SCLCECGSLLTEC; epitope peptide) [compound 468] | 1244 | –
45 | 561 (SCLTEVETPIRNEWGCRCNDSSD; epitope peptide) [compound 561] | 892 | –
46 | 486 (SLFTEVETPIRNEWGCRCNDSSD; epitope peptide) [compound 486] | 1156 | –
47 | 344 (SMLTEVETPIRNEWGCRCNDSSD; epitope peptide) [compound 344] | 1622 | –
48 | 505 (SLLTEKETPIRNEWGCRCNDSSD; epitope peptide) [compound 505] | 1055 | –
49 | 333 (SLLTCVGSLLTEC; epitope peptide) [compound 333] | 1683 | –
50 | 548 (CSLLTECGSLCTEV; epitope peptide) [compound 548] | 917 | –
51 | 554 (CLLTEVGSLLTCV; epitope peptide) [compound 554] | 902 | –
52 | 308 (MSLCTEVGMCLCTCV; epitope peptide) [compound 308] | 1902 | –
53 | 474 (SLLTECETPIRNEWGCRCNDSSD; epitope peptide) [compound 474] | 1214 | –
54 | 322 (SKLTEVETPIRNEWGCRCNDSSD; epitope peptide) [compound 322] | 1784 | –

Row | Substance | Signal (peptides that bind to 23K21 and 8I10) (HuM2e antibody 23K12) | other results
55 | 306 (CSLLTECGMSLLTCV; epitope peptide) [compound 306] | 1918 | –
56 | 479 (SLLTEDETPIRNEWGCRCNDSSD; epitope peptide) [compound 479] | 1196 | –
57 | 531 (MSLCTEVGMSLLTEC; epitope peptide) [compound 531] | 970 | –
58 | 295 (MSLCTEVGMSCLTEV; epitope peptide) [compound 295] | 2026 | –
59 | 331 (MSLLTECGMSLLTCV; epitope peptide) [compound 331] | 1690 | –
60 | 539 (SLLTEYETPIRNEWGCRCNDSSD; epitope peptide) [compound 539] | 950 | –
61 | 305 (CSCLCEVGMSLLTEC; epitope peptide) [compound 305] | 1925 | –
62 | 489 (MSLLTECGMCLLTEV; epitope peptide) [compound 489] | 1111 | –
63 | 469 (MSLLTECGMSLLTEC; epitope peptide) [compound 469] | 1236 | –
64 | 382 (CSLLTECGSLLTEV; epitope peptide) [compound 382] | 1393 | –
65 | 355 (SCLCECGCSLLTEV; epitope peptide) [compound 355] | 1555 | –
66 | 282 (CSCLCEVGMSCLCEC; epitope peptide) [compound 282] | 2705 | –
67 | 483 (CSLLTECGCSLLTEC; epitope peptide) [compound 483] | 1177 | –
68 | 475 (MSLLTECGMSLCTEV; epitope peptide) [compound 475] | 1212 | –
69 | 466 (SCLTEVGCSLLTEV; epitope peptide) [compound 466] | 1250 | –
70 | 604 (SLCTEVGSCLTEV; epitope peptide) [compound 604] | 824 | –
71 | 374 (SLLTECGCSLLTEC; epitope peptide) [compound 374] | 1451 | –
72 | 502 (CSCLCEVGSLLTEC; epitope peptide) [compound 502] | 1064 | –
73 | 526 (MSLLTECGMSCLCEC; epitope peptide) [compound 526] | 992 | –
74 | 325 (SLLTECGSLLTEV; epitope peptide) [compound 325] | 1770 | –
75 | 463 (CSLLTECGSLLTCV; epitope peptide) [compound 463] | 1258 | –
76 | 530 (SLLTESETPIRNEWGCRCNDSSD; epitope peptide) [compound 530] | 974 | –
77 | 655 (SLYTEVETPIRNEWGCRCNDSSD; epitope peptide) [compound 655] | 753 | –
78 | 361 (SCLCECGCSLLTEC; epitope peptide) [compound 361] | 1520 | –
79 | 332 (SALTEVETPIRNEWGCRCNDSSD; epitope peptide) [compound 332] | 1689 | –
